The supplement of paper PMC4862054

What was measured:
Test in all cases: normalised response (% of control), CellTiter-Glo; higher = more viable cells (100 = DMSO, 0 = benzethonium chloride kill control)
Details in all cases: incubation time: 72 h
CAL-51 = tested on: CAL-51
How it was run: (§1)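 The table gives the normalised signal for a single concentration in each entry. Breast cancer cell lines were seeded (20 µl suspension) into 384-well plates holding compound at 5 concentrations in 10-fold steps over a compound-specific 10,000-fold range and incubated 72 h, then read for CellTox Green fluorescence (485/520 nm) and CellTiter-Glo luminescence. Normalisation on each plate used 0.1 % DMSO (100) and a positive kill control (0).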

CAL-120 = tested on: CAL-120
How it was run: as §1

CAL-148 = tested on: CAL-148
How it was run: as §1

MDA-MB-436 = tested on: MDA-MB-436
How it was run: as §1

Hs578T = tested on: Hs578T
How it was run: as §1

MDA-MB-468 = tested on: MDA-MB-468
How it was run: as §1

HCC1937 = tested on: HCC1937
How it was run: as §1

CAL-85-1 = tested on: CAL-85-1
How it was run: as §1

DU-4475 = tested on: DU-4475
How it was run: as §1

HCC1599 = tested on: HCC1599
How it was run: as §1

BT-474 = tested on: BT-474
How it was run: as §1

MDA-MB-453 = tested on: MDA-MB-453
How it was run: as §1

MFM-223 = tested on: MFM-223
How it was run: as §1

HDQ-P1 = tested on: HDQ-P1
How it was run: as §1

SK-BR-3 = tested on: SK-BR-3
How it was run: as §1

MCF-10A = tested on: MCF-10A
How it was run: as §1

BT-549 = tested on: BT-549
How it was run: as §1

HCC1143 = tested on: HCC1143
How it was run: as §1

MDA-MB-231 = tested on: MDA-MB-231
How it was run: as §1

SMILES	normalised response (CAL-51)	normalised response (CAL-120)	normalised response (CAL-148)	normalised response (MDA-MB-436)	normalised response (Hs578T)	normalised response (MDA-MB-468)	normalised response (HCC1937)	normalised response (CAL-85-1)	normalised response (DU-4475)	normalised response (HCC1599)	normalised response (BT-474)	normalised response (MDA-MB-453)	normalised response (MFM-223)	normalised response (HDQ-P1)	normalised response (SK-BR-3)	normalised response (MCF-10A)	normalised response (BT-549)	normalised response (HCC1143)	normalised response (MDA-MB-231)
CC1=C2C[C@H]3[C@@H](CC=C4C[C@@H](O)CC[C@@]43C)[C@@H]2CC[C@]12O[C@@H]1C[C@H](C)CN[C@H]1[C@H]2C [Cyclopamine] (10 nM)	110%	102%	117%	105%	105%	110%	104%	98%	109%	116%	104%	109%	113%	105%	120%	114%	95.6%	105%	105%
CC(=O)N(O)CCCCCNC(=O)CCC(=O)N(O)CCCCCNC(=O)CCC(=O)N(O)CCCCCN [Deferoxamine] (1 nM)	108%	106%	91.9%	101%	100%	91%	93.7%	93.2%	95.6%	120%	94.6%	94.8%	94.7%	105%	94.8%	99.2%	104%	95.1%	91.8%
CC(=O)N(O)CCCCCNC(=O)CCC(=O)N(O)CCCCCNC(=O)CCC(=O)N(O)CCCCCN [Deferoxamine] (10 nM)	87.7%	97.4%	88.3%	96.3%	97%	98.2%	101%	93%	92.3%	110%	94.5%	90.2%	96.9%	105%	99%	91.4%	106%	102%	91.5%
CC(=O)O[C@@]12CO[C@@H]1C[C@H](O)[C@@]1(C)C(=O)[C@H](O)C3=C(C)[C@@H](OC(=O)[C@H](O)[C@@H](NC(=O)OC(C)(C)C)c4ccccc4)C[C@@](O)([C@@H](OC(=O)c4ccccc4)[C@H]21)C3(C)C [Docetaxel] (1 nM)	115%	94.6%	84.6%	81.5%	76.6%	50.2%	83.5%	79.9%	90.6%	97.4%	84.2%	104%	91.3%	90%	68.5%	73.2%	60.5%	71.5%	87.8%
C[C@]12CC[C@@H]3c4ccc(OC(=O)N(CCCl)CCCl)cc4CC[C@H]3[C@@H]1CC[C@@H]2O [Estramustine] (1 nM)	118%	97.6%	80.3%	106%	95.5%	88.2%	93.1%	95%	89.3%	109%	95.3%	94.6%	88%	100%	90%	86.5%	97%	96.4%	94.7%
C[C@]12CC[C@@H]3c4ccc(OC(=O)N(CCCl)CCCl)cc4CC[C@H]3[C@@H]1CC[C@@H]2O [Estramustine] (10 nM)	90.1%	103%	84.1%	93.3%	97%	97.6%	96%	91.2%	91.3%	103%	97%	88.8%	87.7%	104%	94.9%	91.1%	98.6%	98.5%	95.1%
C[C@]1(O)C[C@@H](c2nc(-c3ccc4ccc(-c5ccccc5)nc4c3)c3c(N)nccn32)C1 [Linsitinib] (1 nM)	109%	97.7%	98%	96.4%	93.2%	93.9%	91.5%	92.8%	98%	106%	98.2%	90.9%	87.5%	105%	91.5%	89.5%	92.6%	91.7%	95.3%
C[C@]1(O)C[C@@H](c2nc(-c3ccc4ccc(-c5ccccc5)nc4c3)c3c(N)nccn32)C1 [Linsitinib] (10 nM)	92.4%	102%	85.6%	89.2%	96.1%	90.8%	101%	95%	94.9%	78.5%	93.7%	99.3%	92.8%	99%	76.1%	88.9%	94.4%	96.1%	94.8%
CC1(C)CNc2cc(NC(=O)c3cccnc3NCc3ccncc3)ccc21 [Motesanib] (10 nM)	123%	97.9%	87.4%	99.4%	98.3%	96.8%	99.6%	92.9%	99.4%	101%	105%	106%	93.7%	93.9%	76.2%	93.9%	95.3%	98.2%	91.2%
Nc1nc2[nH]cnc2c(=S)[nH]1 [Thioguanine] (10 nM)	85.1%	100%	105%	98.8%	102%	99.5%	96.9%	99.4%	98.5%	112%	93.8%	87.4%	97.2%	94.6%	–	98.7%	–	101%	98.2%
